The target of the assay is T1, Cav3.2 channel (Homo sapiens, UniProt O95180).
T1 construct: expressed in transfected cells; host or cells: HEK-293, tetracycline inducible expression system (Invitrogen)
In words: Whole-cell patch clamp of T-type Cav3.2 channel expressed in HEK293 cells. To be noted: for IC50: Table 1, tested at at least 4 concentrations, read-out: IC50. The assay is classed as cell-based. As for the experimental part: Cav3.1, Cav3.2 or Cav3.3 channels were expressed in human embryonic kidney (HEK)-293 cells using a tetracycline inducible expression system (Invitrogen). Cells were maintained in 25 cm^2 tissue culture flasks at 37° C., 5% CO2, and 100% relative humidity in D-MEM/F12 (Dulbecco's Modified Eagle Medium/Nutrient Mixture F-12; Gibco) supplemented with fetal bovine serum (FBS, 10% v/v), sodium pyruvate (0.5 mM, Gibco), penicillin-streptomycin (100 U/mL, 100 μg/mL) and Geneticin® Selective antibiotic (G418; 0.5 mg/mL). Cells were detached from the flask base using a non-enzymatic cell dissociation solution (Cellstripper, Corning), removed and re-seeded on to poly-D-lysine coated glass coverslips in 35 mm dishes. Cells in dishes were further supplemented with G418 at a final concentration of 1 mg/mL and after 24 hours, expression of Cav3.2 was induced with 1 μg/mL tetracycline. The medium for the HEK-293 cells was composed of D-MEM/F-12 (Dulbecco's Modified Eagle Medium/Nutrient Mixture F-12; Gibco, #11330-032) and 15 mM HEPES buffer, with L-glutamine and pyridoxine hydrochloride. It was supplemented with FBS (Fetal Bovine Serum), P/S (Penicillin/Streptomycin) (Gibco, #15140-122), and sodium pyruvate 100 mM (Gibco, #11360-070). At least 24 hours before the assay, expression of the alpha-2-delta-1 and beta2a subunits of the calcium channel were induced with 1 ug/mL tetracycline.
Whole-cell voltage clamp recordings were performed on rat or mouse DRG neurons within 2 days after acutely dissociation or cultured HEK293 cells expressing T-type channels (encoded by Cav3.1, Cav3.2 or Cav3.3 channels). All experiments were performed at room temperature (around 21° C.). Whole-cell currents were recorded using a MultiClamp 700B amplifier and analyzed offline with pCLAMP10.4 software (Molecular Devices, LLC, Sunnyvale Calif., USA). To record calcium currents in DRG and HEK293 cells, the external solution was composed (in mM) of 115 choline-Cl, 30 TEA-Cl, 2 CaCl2, 10 glucose and 10 HEPES (pH 7.3-7.4 adjusted with TEA-OH; osmolality verified as 295 mOsm/kg). The internal solution was composed (in mM) of 125 CsCl, 10 HEPES (acid), 10 EGTA (ethylene glycol tetraacetic acid), 1 CaCl2, 1 MgCl2, 4 MgATP and 0.3 MgGTP (pH 7.3-7.4 adjusted with CsOH; osmolality verified as 295 mOsm/kg). Since the sodium ions were absent in the external solution, tetrodoctoxin was not needed. Calcium currents were recorded at a holding potential of −100 mV and then depolarized to −30 mV for 100 ms to activate either Cav3.1, Cav3.2, or Cav3.3 expressed in HEK cells. An interpulse interval of 10 seconds allowed the channel recovery from inactivation, and achieved stable current recordings. To record sodium (Na^+) currents in DRG neurons, the external solution used the modified Krebs solution specified above. The internal solution was composed (in mM) of 120 CsF, 10 HEPES, 11 EGTA, 1 CaCl2, 1 MgCl2, 10 TEA-Cl, 4 MgATP and 0.3 MgGTP (pH 7.3-7.4 adjusted with CsOH). […] To record potassium currents in DRG neurons, the external solution used the modified Kreb's solution specified above. The internal solution was composed (in mM) of 65 KCl, 80 KF, 5 KOH, 10 EGTA, 2 MgATP (pH 7.3-7.4 adjusted with KOH). Recording electrodes were fabricated using a P-87 puller (Sutter Instrument Co., Novato, Calif., USA). The tip of resistance was 3-4 MQ in bath and the series resistance was less than 10 MΩ after whole cell configuration. All reagents were purchased from Sigma unless specified otherwise. Test compounds were usually applied via a rapid solution exchange system with 8 fine polyplastic tubings (100 μm, OD) glued in a holder in parallel and located closely to the recorded cells. […]
Background: Patch clamp records ionic current or voltage across a cell membrane.

Setting [1] is: HEK293, Table 1 primary screening.
[2] abbreviates: HEK293, Table 1 primary screening, 3 μM as indicated in cell, read-out: % inhibition at 3 μM.

Read-outs that look alike come from different tables or passages of the source.

For orientation: inhibition means the percentage by which the read-out fell short of the control. The term IC50 denotes the point on the concentration scale where inhibition reaches its midpoint.

T1 sequence (O95180 whole entry): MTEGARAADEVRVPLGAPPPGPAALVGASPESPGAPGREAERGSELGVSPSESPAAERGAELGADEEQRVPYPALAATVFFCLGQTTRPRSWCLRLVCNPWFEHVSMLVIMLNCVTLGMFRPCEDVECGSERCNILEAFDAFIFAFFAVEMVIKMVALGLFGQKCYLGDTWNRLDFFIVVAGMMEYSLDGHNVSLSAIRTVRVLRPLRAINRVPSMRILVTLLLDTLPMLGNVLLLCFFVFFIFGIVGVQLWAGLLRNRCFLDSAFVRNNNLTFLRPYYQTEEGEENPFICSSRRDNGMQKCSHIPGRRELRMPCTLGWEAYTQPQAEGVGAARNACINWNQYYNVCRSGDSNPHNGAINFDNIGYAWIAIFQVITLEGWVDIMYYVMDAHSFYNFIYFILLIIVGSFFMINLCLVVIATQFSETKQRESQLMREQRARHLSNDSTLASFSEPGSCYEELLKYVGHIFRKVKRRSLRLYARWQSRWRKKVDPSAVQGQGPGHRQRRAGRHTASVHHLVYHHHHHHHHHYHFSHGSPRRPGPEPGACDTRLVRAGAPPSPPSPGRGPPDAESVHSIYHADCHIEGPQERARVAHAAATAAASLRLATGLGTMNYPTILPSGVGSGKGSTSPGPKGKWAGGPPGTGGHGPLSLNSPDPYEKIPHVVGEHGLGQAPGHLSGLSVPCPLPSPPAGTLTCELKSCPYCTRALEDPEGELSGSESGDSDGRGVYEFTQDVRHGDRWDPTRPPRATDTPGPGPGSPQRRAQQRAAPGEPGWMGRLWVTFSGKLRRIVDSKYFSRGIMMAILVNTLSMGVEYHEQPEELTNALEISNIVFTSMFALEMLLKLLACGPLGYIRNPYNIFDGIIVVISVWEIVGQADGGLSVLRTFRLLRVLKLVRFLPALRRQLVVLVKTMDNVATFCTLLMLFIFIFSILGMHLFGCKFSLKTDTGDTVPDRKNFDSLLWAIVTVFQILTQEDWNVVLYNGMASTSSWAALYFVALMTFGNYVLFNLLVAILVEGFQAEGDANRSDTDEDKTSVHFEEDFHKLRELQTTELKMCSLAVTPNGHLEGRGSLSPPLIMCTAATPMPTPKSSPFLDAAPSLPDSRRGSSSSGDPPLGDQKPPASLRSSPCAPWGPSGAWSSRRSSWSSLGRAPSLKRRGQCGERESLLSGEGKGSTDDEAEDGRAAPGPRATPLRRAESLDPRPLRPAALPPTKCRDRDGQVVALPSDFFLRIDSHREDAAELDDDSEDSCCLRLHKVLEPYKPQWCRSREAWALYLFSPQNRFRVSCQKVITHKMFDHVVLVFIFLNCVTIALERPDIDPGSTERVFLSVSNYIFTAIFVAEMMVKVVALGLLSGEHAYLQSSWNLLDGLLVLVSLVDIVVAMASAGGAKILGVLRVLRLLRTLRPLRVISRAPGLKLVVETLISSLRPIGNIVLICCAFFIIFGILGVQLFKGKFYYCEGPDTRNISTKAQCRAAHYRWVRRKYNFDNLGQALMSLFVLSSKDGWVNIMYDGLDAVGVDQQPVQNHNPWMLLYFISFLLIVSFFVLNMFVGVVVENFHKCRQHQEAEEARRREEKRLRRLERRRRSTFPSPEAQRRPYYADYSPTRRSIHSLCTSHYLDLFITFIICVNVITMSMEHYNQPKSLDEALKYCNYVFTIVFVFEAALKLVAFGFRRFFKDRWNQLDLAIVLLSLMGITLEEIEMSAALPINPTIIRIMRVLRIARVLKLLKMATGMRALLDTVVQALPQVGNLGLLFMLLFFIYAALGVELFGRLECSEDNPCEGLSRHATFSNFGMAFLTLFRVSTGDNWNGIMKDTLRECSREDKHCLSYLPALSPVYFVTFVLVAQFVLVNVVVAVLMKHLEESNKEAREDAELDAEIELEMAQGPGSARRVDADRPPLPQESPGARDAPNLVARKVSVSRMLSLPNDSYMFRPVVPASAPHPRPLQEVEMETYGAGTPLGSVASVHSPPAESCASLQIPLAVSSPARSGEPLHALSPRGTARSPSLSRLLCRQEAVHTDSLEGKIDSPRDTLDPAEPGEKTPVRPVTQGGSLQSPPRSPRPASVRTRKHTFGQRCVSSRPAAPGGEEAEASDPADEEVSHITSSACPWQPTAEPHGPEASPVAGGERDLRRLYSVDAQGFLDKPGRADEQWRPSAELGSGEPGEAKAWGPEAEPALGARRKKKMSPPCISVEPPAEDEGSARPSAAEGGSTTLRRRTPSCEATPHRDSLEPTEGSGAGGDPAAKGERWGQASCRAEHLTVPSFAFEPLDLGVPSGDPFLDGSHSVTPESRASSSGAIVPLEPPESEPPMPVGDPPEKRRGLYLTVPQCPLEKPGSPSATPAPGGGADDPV

Take `Cc1cc(C(=O)Nc2nnc(-c3ccccc3)o2)no1` [Example 122, 5-Methyl-N-(5-phenyl-1,3,4-oxadiazol-2-yl)isoxazole-3-carboxamide]: 1 µM produced 14.9% inhibition under setting [1].

With `O=C(NCC1CCN(CCC2CC2)CC1)c1ccc(Cl)s1` [Example 97, 5-Chloro-N-((1-(2-cyclopropylethyl)piperidin-4-yl)methyl)thiophene-2-carboxamide], the inhibition at 1 µM under setting [1] was 33%.

Consider `CC(C)(C)CCN1CCC2(CC1)CC2NC(=O)c1ccccc1Cl` (stereo not drawn) [Example 20, 2-Chloro-N-(6-(3,3-dimethylbutyl)-6-azaspiro[2.5]octan-1-yl)benzamide], for which at 1 µM the inhibition under setting [1] was 37%.

Consider `CC(C)(C)CCN1CCC2(CC1)CC2CNc1cc(Cl)cc(Cl)c1` (stereo not drawn) [Example 94], for which the IC50 is 130 nM.

As for `CC(C)(C)CCN1CCC2(CC1)CC2C(=O)Nc1cc(Cl)cc(Cl)c1` (stereo not drawn) [Example 91, N-(3,5-Dichlorophenyl)-6-(3,3-dimethylbutyl)-6-azaspiro[2.5]octane-1-carboxamide], the IC50 was found to be 60 nM.

Take `O=C(NC1CC12CCN(Cc1ccccc1)CC2)c1ccccc1` (stereo not drawn) [Example 5, N-(6-Benzyl-6-azaspiro[2.5]octan-1-yl)benzamide]: the inhibition at 3 µM under setting [2] was 44%.

Turning to `CC(C)(C)C(O)CN1CCC2(CC1)CC2NC(=O)c1cc(F)cc(Cl)c1` (single isomer, unassigned) [Example 135, 3-Chloro-5-fluoro-N-((1R)-6-(2-hydroxy-3,3-dimethylbutyl)-6-azaspiro[2.5]octan-1-yl)benzamide or 3-Chloro-5-fluoro-N-((1S)-6-(2-hydroxy-3,3-dimethylbutyl)-6-azaspiro [2.5]octan-1-yl) benzamide], the half-inhibitory concentration (IC50) amounted to 210 nM.

`O=C(Nc1nnc(-c2ccccc2)o1)c1cnccn1` [Example 124, N-(5-Phenyl-1,3,4-oxadiazol-2-yl)pyrazine-2-carboxamide] yielded an inhibition at 1 µM under setting [1] of 7.1%.

As for `CN(C(=O)c1cc(Cl)cc(Cl)c1)C1CC12CCN(CCC(C)(C)C)CC2` (stereo not drawn) [Example 54, 3,5-Dichloro-N-(6-(3,3-dimethylbutyl)-6-azaspiro[2.5]octan-1-yl)-N-methylbenzamide], the half-maximal inhibitory concentration (IC50) was 230 nM.

Take `CC(C)(C)C(=O)CN1CCC2(CC1)CC2NC(=O)c1cc(Cl)cc(Cl)c1` (stereo not drawn) [Example 49, 3,5-Dichloro-N-(6-(3,3-dimethyl-2-oxobutyl)-6-azaspiro[2.5]octan-1-yl)benzamide]: the half-inhibitory concentration (IC50) amounted to 160 nM.

On to `CC(C)(C)CCN1CCC2(CC1)CC2NC(=O)c1cncc(C(F)(F)F)c1` (stereo not drawn) [Example 26, N-(6-(3,3-dimethylbutyl)-6-azaspiro[2.5]octan-1-yl)-5-(trifluoromethyl)nicotinamide], for which testing at 1 µM under setting [1] gave an inhibition of 64%.

Regarding `O=C(NC1CC12CCN(CCc1ccccc1)CC2)c1cc(Cl)cc(Cl)c1` (stereo not drawn) [Example 13, 3,5-Dichloro-N-(6-phenethyl-6-azaspiro[2.5]octan-1-yl)benzamide], the half-maximal inhibitory concentration (IC50) came to 30 nM.

`O=C(NC1CC12CCN(Cc1ccccc1)CC2)c1cc(Cl)cc(Cl)c1` (stereo not drawn) [Example 15, N-(6-Benzyl-6-azaspiro[2.5]octan-1-yl)-3,5-dichlorobenzamide]: the half-maximal inhibitory concentration (IC50) came out at 80 nM.

For `CC(C)NC(=O)CN1CCC2(CC1)CC2NC(=O)c1cc(Cl)cc(Cl)c1` (stereo not drawn) [Example 37, 3,5-Dichloro-N-(6-(2-(isopropylamino)-2-oxoethyl)-6-azaspiro[2.5]octan-1-yl)benzamide], the IC50 was 50 nM.

Regarding `Clc1cc(Cl)cc(NCC2CC23CCN(CCc2ccccc2)CC3)c1` (stereo not drawn) [Example 95], the inhibition at 1 µM under setting [1] was determined as 67%.

`O=C(NC1CC12CCN(CCC1CCOCC1)CC2)c1cc(Cl)cc(Cl)c1` (stereo not drawn) [Example 47, 3,5-Dichloro-N-(6-(2-(tetrahydro-2H-pyran-4-yl)ethyl)-6-azaspiro[2.5]octan-1-yl)benzamide]: the concentration for half-maximal inhibition (IC50) was 160 nM.

With `O=C(NC1CC12CCN(CC(O)c1ccc(F)cc1)CC2)c1cc(F)cc(Cl)c1` (single isomer, unassigned) [Example 139, 3-Chloro-5-fluoro-N-((1R)-6-(2-(4-fluorophenyl)-2-hydroxyethyl)-6-azaspiro[2.5]octan-1-yl)benzamide or 3-Chloro-5-fluoro-N-((1S)-6-(2-(4-fluorophenyl)-2-hydroxyethyl)-6-azaspiro[2.5]octan-1-yl)benzamide], the half-inhibitory concentration (IC50) amounted to 90 nM.

As for `CC(C)(C)CCN1CCC2(CC1)CC2NC(=O)c1ccc(Cl)cc1Cl` (stereo not drawn) [Example 23, 2,4-Dichloro-N-(6-(3,3-dimethylbutyl)-6-azaspiro[2.5]octan-1-yl)benzamide], the inhibition at 1 µM under setting [1] came to 69%.

Under setting [1], `O=C(CN1CCC(CNC(=O)c2ccccc2)CC1)NC1CCCCC1` [Example 100, N-((1-(2-(Cyclohexylamino)-2-oxoethyl)piperidin-4-yl)methyl)benzamide] had an inhibition at 1 µM of 26%.

As for `O=C(CCc1cccc(Cl)c1)Nc1nnc(-c2ccccc2)o1` [Example 119, 3-(3-Chlorophenyl)-N-(5-phenyl-1,3,4-oxadiazol-2-yl)propanamide], under setting [2], the inhibition at 3 µM is 5%.

For the molecule `O=C(NC1CC12CCN(CCc1ccc(C(F)(F)F)cc1)CC2)c1cc(Cl)cc(Cl)c1` (stereo not drawn) [Example 43, 3,5-Dichloro-N-(6-(4-(trifluoromethyl)phenethyl)-6-azaspiro[2.5]octan-1-yl)benzamide], the IC50 was 120 nM.

Regarding `O=C(NC1CC12CCN(CCc1ccccc1)CC2)c1ccccc1` (stereo not drawn) [Example 3, N-(6-Phenethyl-6-azaspiro[2.5]octan-1-yl)benzamide], the inhibition at 3 µM under setting [2] is 47.7%.

Turning to `O=C(NC1CC12CCN(CC1CCOCC1)CC2)c1cc(Cl)cc(Cl)c1` (stereo not drawn) [Example 46, 3,5-Dichloro-N-(6-((tetrahydro-2H-pyran-4-yl)methyl)-6-azaspiro[2.5]octan-1-yl)benzamide], the IC50 turned out to be 150 nM.

As for `CC(C)(C)CCN1CCC2(CC1)CC2NC(=O)c1cc(Br)cc(Br)c1` (stereo not drawn) [Example 25, 3,5-Dibromo-N-(6-(3,3-dimethylbutyl)-6-azaspiro[2.5]octan-1-yl)benzamide], the IC50 was found to be 60 nM.

Consider `CC(C)(C)NC(=O)CN1CCC2(CC1)CC2CNC(=O)c1cc(Cl)cc(Cl)c1` (stereo not drawn) [Example 87, N-((6-(2-(tert-Butylamino)-2-oxoethyl)-6-azaspiro[2.5]octan-1-yl)methyl)-3,5-dichlorobenzamide], for which the IC50 turned out to be 690 nM.

With `O=C(Nc1cc(Cl)cc(Cl)c1)C1CC12CCN(CCc1ccccc1)CC2` (stereo not drawn) [Example 92, N-(3,5-Dichlorophenyl)-6-phenethyl-6-azaspiro[2.5]octane-1-carboxamide], under setting [1], the inhibition at 1 µM amounted to 35%.

Molecule `O=C(Nc1nnc(-c2ccccc2F)o1)c1cnccn1` [Example 127, N-(5-(2-Fluorophenyl)-1,3,4-oxadiazol-2-yl)pyrazine-2-carboxamide] gave an inhibition at 1 µM under setting [1] of 8.5%.

As for `CC(C)(C)CCN1CCC2(CC1)CC2NC(=O)c1ccccc1` (stereo not drawn) [Example 2, N-(6-(3,3-Dimethylbutyl)-6-azaspiro[2.5]octan-1-yl)benzamide], the inhibition at 3 µM under setting [2] was determined as 55.3%.

Turning to `CC(C)CN1CCC2(CC1)CC2NC(=O)c1ccccc1` (stereo not drawn) [Example 1, N-(6-Isobutyl-6-azaspiro[2.5]octan-1-yl)benzamide], the inhibition at 3 µM (HEK293, read-out: % inhibition at 3 μM) was found to be 15.3%.

Consider `Cc1cc(C(=O)Nc2nnc(-c3ccccc3F)o2)no1` [Example 126, N-(5-(2-Fluorophenyl)-1,3,4-oxadiazol-2-yl)-5-methylisoxazole-3-carboxamide], for which at 1 µM the inhibition under setting [1] was 5.9%.

(Values after patent publication US10562857B2 (AFASCI, Inc., priority 2015, dated 2020).)
